By MIC is commonly meant the lowest concentration found to suppress growth. Lower therefore signals a more susceptible organism.

Converted amounts (≈) assume the structure as drawn. Where a SMILES comes first, the peptide text is derived from it. Bridges are numbered along the chain shown (N, C = ends). Roman numbers before positions name the chains, in order. [ ]: non-standard residue; d: D form. Tle = CC(C)(C)[C@H](N)C(=O)O; d(hSer) = N[C@H](CCO)C(=O)O; Hiv = CC(C)[C@H](O)C(=O)O; dDab = NCC[C@@H](N)C(=O)O; hSer = N[C@@H](CCO)C(=O)O; Orn = NCCC[C@H](N)C(=O)O; Dab = NCC[C@H](N)C(=O)O; Dap = NC[C@H](N)C(=O)O

This note sets out measurements from US11629171B2, “Beta-hairpin peptidomimetics” (POLYPHOR AG, priority 2017, dated 2023).

Type in all cases: cell-based
Data set [1] concerns Acinetobacter baumannii 872842. The conditions noted are these: 872842. An outline of the steps: (§1)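 Two-fold peptide dilutions in polysorbate 80-containing (0.002% final) cation-adjusted Mueller-Hinton II broth were inoculated with about 10^6 CFU/mL. The MIC was taken as the lowest concentration, in μg/mL, preventing visible growth at 18-20 hours and 35° C.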
The subject of data set [2] is Acinetobacter baumannii DSM 30008. The conditions noted are these: DSM 30008. In outline: as §1
The subject of data set [3] is Enterobacter cloacae 848840. The conditions noted are these: 848840. In outline:
as §1

A further data set has as its system Escherichia coli 926415. The note with it: 926415. In outline:
as §1

The subject of data set [4] is Escherichia coli ATCC 25922. The note with it: ATCC 25922. In outline: as §1
The test system of data set [5] is Klebsiella pneumoniae 968733. The note with it: 968733. An outline of the steps:
as §1

Data set [6] deals with Klebsiella pneumoniae SSI #3010. The conditions noted are these: SSI #3010. An outline of the steps:
as §1

For data set [7], the system named is Pseudomonas aeruginosa ATCC 27853. The note with it: ATCC 27853. An outline of the steps: as §1
The subject of data set [8] is human red blood cells (hRBC). Nature of the data set: Hemolysis. The conditions noted are these: red cells of human, 1 h, 200. An outline of the steps: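 Hemoglobin release from PBS-washed hRBC at 20% (v/v), incubated 1 h at 37° C with peptides at 200 μg/mL, is measured at 540 nm. Values are blank corrected and given as a fraction of Triton X-100 lysis × 100%.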

In the case of `CC(=O)N[C@H](C(=O)N[C@H]1CCCNC(=O)[C@@H](CCC(N)=O)NC(=O)[C@H](C(C)(C)C)NC(=O)[C@H](CO)NC(=O)[C@H](Cc2c[nH]c3ccccc23)NC(=O)[C@H](CCO)NC(=O)[C@@H](CCN)NC(=O)[C@H](CCC(=O)N[C@@H](CCN)C(=O)N[C@H](C(=O)N[C@@H](CN)C(=O)N[C@H]2CCNC(=O)[C@H]([C@@H](C)O)NC(=O)[C@H](CCN)NC(=O)[C@H](CCN)NC(=O)[C@H](CC(C)C)NC(=O)[C@@H](CC(C)C)NC(=O)[C@H](CCN)NC2=O)[C@@H](C)O)NC(=O)[C@H](CO)NC(=O)[C@H](Cc2ccc(O)cc2)NC1=O)C(C)C` [Ex. 20] (I: Ac-V[Orn]YSE[dDab][hSer]WS[Tle][dQ] / II: [Dab]T[Dap][Dab][Dab][dL]L[Dab][Dab]T; lactam I:2-I:C, II:4-II:C; amide I:5-II:N), the MIC in data set [1] was 0.5 µg/mL (≈ 0.213 µM); in data set [2], 0.125 µg/mL (≈ 0.0532 µM); in data set [3], 0.25 µg/mL (≈ 0.106 µM); in the data set on Escherichia coli 926415 it was 1 µg/mL (≈ 0.426 µM); in [4], 0.125 µg/mL (≈ 0.0532 µM); in data set [5], 2 µg/mL (≈ 0.852 µM). Also, the values for the MIC in [6] and in data set [7] were 0.125 µg/mL (≈ 0.0532 µM) and 0.25 µg/mL (≈ 0.106 µM), respectively. For the same molecule, in data set [8], the “Hemolysis at 200 μg/mL” value is less than 1%.

For the molecule `CC(=O)N[C@H](C(=O)N[C@H]1CCCNC(=O)[C@@H](CCC(=O)O)NC(=O)[C@H](C(C)(C)C)NC(=O)[C@H](CO)NC(=O)[C@H](Cc2c[nH]c3ccccc23)NC(=O)[C@H](CCO)NC(=O)[C@@H](CCN)NC(=O)[C@H](CCC(=O)N[C@@H](CCN)C(=O)N[C@H](C(=O)N[C@@H](CN)C(=O)N[C@H]2CCNC(=O)[C@H]([C@@H](C)O)NC(=O)[C@H](CCN)NC(=O)[C@H](CCN)NC(=O)[C@H](CC(C)C)NC(=O)[C@@H](CC(C)C)NC(=O)[C@H](CCN)NC2=O)[C@@H](C)O)NC(=O)[C@H](CO)NC(=O)[C@H](Cc2ccc(O)cc2)NC1=O)C(C)C` [Ex. 21] (I: Ac-V[Orn]YSE[dDab][hSer]WS[Tle][dE] / II: [Dab]T[Dap][Dab][Dab][dL]L[Dab][Dab]T; lactam I:2-I:C, II:4-II:C; amide I:5-II:N), the MIC in [1] is 2 µg/mL (≈ 0.852 µM); in data set [2], 0.5 µg/mL (≈ 0.213 µM); in data set [3], 0.5 µg/mL (≈ 0.213 µM); against Escherichia coli 926415, 8 µg/mL (≈ 3.41 µM); in data set [4] it was 0.25 µg/mL (≈ 0.106 µM); in data set [5], 8 µg/mL (≈ 3.41 µM). Besides, the MIC in data set [6] and in data set [7] was 0.5 µg/mL (≈ 0.213 µM) each time. In addition, in data set [8], the “Hemolysis at 200 μg/mL” value is on record as less than 1%.

`CC(=O)N[C@H](C(=O)N[C@H]1CCCNC(=O)[C@@H](CCO)NC(=O)[C@H](C(C)(C)C)NC(=O)[C@H](CO)NC(=O)[C@H](Cc2c[nH]c3ccccc23)NC(=O)[C@H](CCO)NC(=O)[C@@H](CCN)NC(=O)[C@H](CCC(=O)N[C@@H](CCN)C(=O)N[C@H](C(=O)N[C@@H](CN)C(=O)N[C@H]2CCNC(=O)[C@H]([C@@H](C)O)NC(=O)[C@H](CCN)NC(=O)[C@H](CCN)NC(=O)[C@H](CC(C)C)NC(=O)[C@@H](CC(C)C)NC(=O)[C@H](CCN)NC2=O)[C@@H](C)O)NC(=O)[C@H](CO)NC(=O)[C@H](Cc2ccc(O)cc2)NC1=O)C(C)C` [Ex. 22] (I: Ac-V[Orn]YSE[dDab][hSer]WS[Tle][d(hSer)] / II: [Dab]T[Dap][Dab][Dab][dL]L[Dab][Dab]T; lactam I:2-I:C, II:4-II:C; amide I:5-II:N): the MIC in data set [1] came out at 0.25 µg/mL (≈ 0.108 µM); in data set [2], 0.0625 µg/mL (≈ 0.0269 µM); in data set [3], 0.125 µg/mL (≈ 0.0539 µM); against Escherichia coli 926415 it was 0.5 µg/mL (≈ 0.215 µM); in data set [4], 0.0625 µg/mL (≈ 0.0269 µM); in [5] it was 1 µg/mL (≈ 0.431 µM). For the same molecule, the values for the minimal inhibitory concentration (MIC) in [6] and in [7] were 0.125 µg/mL (≈ 0.0539 µM) and 0.5 µg/mL (≈ 0.215 µM), respectively. The “Hemolysis at 200 μg/mL” value in data set [8] is less than 1%.

Consider `CC(=O)N[C@H](C(=O)N[C@H]1CCCNC(=O)[C@@H]([C@H](C)O)NC(=O)[C@H](C(C)(C)C)NC(=O)[C@H](CO)NC(=O)[C@H](Cc2c[nH]c3ccccc23)NC(=O)[C@H](CO)NC(=O)[C@@H](CCN)NC(=O)[C@H](CCC(=O)N[C@@H](CCN)C(=O)N[C@H](C(=O)N[C@@H](CN)C(=O)N[C@H]2CCNC(=O)[C@H]([C@@H](C)O)NC(=O)[C@H](CCN)NC(=O)[C@H](CCN)NC(=O)[C@H](CC(C)C)NC(=O)[C@@H](CC(C)C)NC(=O)[C@H](CCN)NC2=O)[C@@H](C)O)NC(=O)[C@H](CO)NC(=O)[C@H](Cc2ccc(O)cc2)NC1=O)C(C)C` [Ex. 23] (I: Ac-V[Orn]YSE[dDab]SWS[Tle][dT] / II: [Dab]T[Dap][Dab][Dab][dL]L[Dab][Dab]T; lactam I:2-I:C, II:4-II:C; amide I:5-II:N), for which the minimum inhibitory concentration (MIC) in data set [1] was 0.25 µg/mL (≈ 0.108 µM); in data set [2] it was 0.0625 µg/mL (≈ 0.0271 µM); in data set [3] it was 0.125 µg/mL (≈ 0.0542 µM); against Escherichia coli 926415, 0.5 µg/mL (≈ 0.217 µM); in data set [4] it was 0.0625 µg/mL (≈ 0.0271 µM); in [5], 0.5 µg/mL (≈ 0.217 µM). The minimum inhibitory concentration (MIC) was found to be 0.125 µg/mL (≈ 0.0542 µM) in data set [6] and 0.25 µg/mL (≈ 0.108 µM) in data set [7]. Also, the “Hemolysis at 200 μg/mL” value in [8] was less than 1%.

As to `CC(C)C[C@@H]1NC(=O)[C@@H](CC(C)C)NC(=O)[C@H](CCN)NC(=O)[C@@H](NC(=O)[C@H](CN)NC(=O)[C@@H](NC(=O)[C@H](CCN)NC(=O)CC[C@@H]2NC(=O)[C@H](CO)NC(=O)[C@H](Cc3ccc(O)cc3)NC(=O)[C@@H](NC(=O)[C@@H](O)C(C)C)CCCNC(=O)[C@@H]([C@H](C)O)NC(=O)[C@H](C(C)(C)C)NC(=O)[C@H](CO)NC(=O)[C@H](Cc3c[nH]c4ccccc34)NC(=O)[C@H](CCO)NC(=O)[C@@H](CCN)NC2=O)[C@@H](C)O)CCNC(=O)[C@H]([C@@H](C)O)NC(=O)[C@H](CCN)NC(=O)[C@H](CCN)NC1=O` [Ex. 24] (I: H-[Hiv][Orn]YSE[dDab][hSer]WS[Tle][dT] / II: [Dab]T[Dap][Dab][Dab][dL]L[Dab][Dab]T; lactam I:2-I:C, II:4-II:C; amide I:5-II:N), the MIC in [1] turned out to be 1 µg/mL (≈ 0.439 µM); in data set [2], 0.125 µg/mL (≈ 0.0548 µM); in data set [3], 0.25 µg/mL (≈ 0.11 µM); with Escherichia coli 926415, 2 µg/mL (≈ 0.877 µM); in [4], 0.125 µg/mL (≈ 0.0548 µM); in data set [5], 0.5 µg/mL (≈ 0.219 µM). Also, the MIC in data set [6] worked out at 0.125 µg/mL (≈ 0.0548 µM); in data set [7], 0.25 µg/mL (≈ 0.11 µM). The “Hemolysis at 200 μg/mL” value in [8] is listed as less than 1%.

Take `CC(=O)N[C@H](C(=O)N[C@H]1CCCNC(=O)[C@@H]([C@H](C)O)NC(=O)[C@H](C(C)(C)C)NC(=O)[C@H](CO)NC(=O)[C@H](Cc2c[nH]c3ccccc23)NC(=O)[C@H](CCN)NC(=O)[C@@H](CCN)NC(=O)[C@H](CCC(=O)N[C@@H](CCN)C(=O)N[C@H](C(=O)N[C@@H](CN)C(=O)N[C@H]2CCNC(=O)[C@H]([C@@H](C)O)NC(=O)[C@H](CCN)NC(=O)[C@H](CCN)NC(=O)[C@H](CC(C)C)NC(=O)[C@@H](CC(C)C)NC(=O)[C@H](CCN)NC2=O)[C@@H](C)O)NC(=O)[C@H](CO)NC(=O)[C@H](Cc2ccc(O)cc2)NC1=O)C(C)C` [Ex. 25] (I: Ac-V[Orn]YSE[dDab][Dab]WS[Tle][dT] / II: [Dab]T[Dap][Dab][Dab][dL]L[Dab][Dab]T; lactam I:2-I:C, II:4-II:C; amide I:5-II:N): the MIC came to 0.25 µg/mL (≈ 0.108 µM) in [1]; 0.0625 µg/mL (≈ 0.0269 µM) in [2]; 0.125 µg/mL (≈ 0.0539 µM) in data set [3]; 0.25 µg/mL (≈ 0.108 µM) against Escherichia coli 926415; 0.0625 µg/mL (≈ 0.0269 µM) in [4]; 0.25 µg/mL (≈ 0.108 µM) in data set [5]. For the same molecule, the MIC in data set [6] worked out at 0.125 µg/mL (≈ 0.0539 µM); in [7], 0.25 µg/mL (≈ 0.108 µM). Moreover, the “Hemolysis at 200 μg/mL” value in data set [8] was less than 1%.

For `CC(=O)N[C@H](C(=O)N[C@H]1CCCNC(=O)[C@@H](Cc2ccc(O)cc2)NC(=O)[C@H](C(C)(C)C)NC(=O)[C@H](CO)NC(=O)[C@H](Cc2c[nH]c3ccccc23)NC(=O)[C@H](CCO)NC(=O)[C@@H](CCN)NC(=O)[C@H](CCC(=O)N[C@@H](CCN)C(=O)N[C@H](C(=O)N[C@@H](CN)C(=O)N[C@H]2CCNC(=O)[C@H]([C@@H](C)O)NC(=O)[C@H](CCN)NC(=O)[C@H](CCN)NC(=O)[C@H](CC(C)C)NC(=O)[C@@H](CC(C)C)NC(=O)[C@H](CCN)NC2=O)[C@@H](C)O)NC(=O)[C@H](CO)NC(=O)[C@H](Cc2ccc(O)cc2)NC1=O)C(C)C` [Ex. 26] (I: Ac-V[Orn]YSE[dDab][hSer]WS[Tle][dY] / II: [Dab]T[Dap][Dab][Dab][dL]L[Dab][Dab]T; lactam I:2-I:C, II:4-II:C; amide I:5-II:N), the MIC in data set [1] is 0.125 µg/mL (≈ 0.0525 µM); in data set [2], 0.03125 µg/mL (≈ 0.0131 µM); in data set [3], 0.25 µg/mL (≈ 0.105 µM); with Escherichia coli 926415, 0.125 µg/mL (≈ 0.0525 µM); in data set [4] it was 0.0625 µg/mL (≈ 0.0262 µM); in data set [5], 0.25 µg/mL (≈ 0.105 µM). Besides, the minimum inhibitory concentration (MIC) was found to be 0.125 µg/mL (≈ 0.0525 µM) in [6] and 0.25 µg/mL (≈ 0.105 µM) in data set [7]. Further, the “Hemolysis at 200 μg/mL” value in [8] was found to be 1%.
